{
  "source": "patent US8256433B2",
  "about": "(priority 1999, dated 2012)",
  "conditions": "pH 3",
  "data": [
    {"smiles": "CN1CCCC1c1cccnc1.O=C(O)C(O)C(O)C(=O)O", "note": "(stereo not shown) [Nicotine Bitartrate, nicotine bitartrate]", "values": [
      {"measurement": "loss of nicotine into the polymeric dosage form materials, comparison of salts", "value": "better"}
    ]}
  ]
}
